Tested on: MV4-11 cells
Assay: Antiproliferative activity, MTT assay, MV4-11 leukemia cells
Format: cell-based, human
Conditions: Homo sapiens, MV4-11, 72 h, 72 h incubation, MTT; read-out: Growth inhibition IC50, leukemia cell line MV4-11
Protocol: The in vitro antiproliferative activity tests have been conducted against four human cancer cell lines: MV4-11 biphenotypic B myelomonocytic leukemia cell line, A549 lung carcinoma cell line, MCF-7 breast carcinoma cell line, PC-3 prostate carcinoma cell line and one normal BALB/3T3 mouse fibroblast cell line. […] All tested compounds were dissolved in DMSO and diluted with a culture medium to a desired concentration. […] Cell viability, after 72 h incubation of the cells with tested compounds, was determined using tetrazolinum dye MTT (for MV4-11 cells) or sulforhodamine B (SRB test, for MCF-7, A549, PC-3, BALB/3T3 cells) colorimetric assays.
Human biphenotypic B myelomonocytic leukemia MV4-11, murine normal fibroblast BALB/3T3 cells were obtained from the American Type Culture Collection (USA); and human lung carcinoma A549, human breast cancer MCF-7 and human prostate adenocarcinoma PC-3 were obtained from the European Collection of Authenticated Cell Cultures (UK).
MV4-11 and PC-3 cells were cultured in RPMI 1640 medium (HIIET PAS, Poland) with 1.0 mM sodium pyruvate (only MV4-11) and 10% fetal bovine serum (FBS) (all from Merck, Darmstadt, Germany). A549 cells were cultured in RPMI 1640 + Opti-MEM (1:1) ((HIIET PAS, Poland and Gibco, UK) supplemented with 5% fetal bovine serum (Merck, Darmstadt, Germany). The MCF-7 cells were cultured in Eagle medium (HIIET PAS, Poland) supplemented with 8 mg/mL of insulin and 1% of MEM NON-Essential amino acid (all Merck, Darmstadt, Germany). Normal fibroblasts BALB/3T3 cells were cultured in DMEM medium (Gibco, UK) supplemented with 10% fetal bovine serum and 1.0 mM sodium pyruvate (all from Merck, Darmstadt, Germany). All culture media were supplemented with 2 mM L-glutamine (Merck, Darmstadt, Germany), 100 units/ml penicillin, (Polfa Tarchomin S.A., Poland) and 100 µg/mL streptomycin (Merck, Darmstadt, Germany). All cell lines were grown at 37 °C in a 5% CO2 humidified atmosphere.
The solutions of the tested compounds were prepared by dissolving the substances in DMSO to the desired concentration (25 mM). Then, the tested compounds were diluted in a culture medium to reach the final concentrations. Before addition of the tested compounds (24 h prior), the cells were plated in 96-well plates (Sarstedt, Germany) at a density of 1 × 10^4, 0.75 × 10^4 (MCF-7) or 0.5 × 10^4 (A549) cells per well. The assay was performed after 72 h of exposure to 100, 10, 1 and 0.1 µM concentration of the tested agents. […] The SRB method determined the amount of cellular proteins. The concentration of the colorimetric probe (formazan in MTT or sulforhodamine B in SRB method) was determined by an optical density measurement using a standard microplate reader for 96-well plates. After optical density measurement, using the data of the mean absorbances of control cells (AbCC), the absorbances of cells treated by the tested compound (AbTr) (for each concentration separately) and the absorbance of the cultured medium (AbCM) the % of cell proliferation inhibition was calculated according to the following formula: % inh. cells proliferation=100−AbTr−AbCM/AbCC−AbCM×100
From the obtained proliferation inhibition values, effect-concentration curves of the compound used were plotted. […] IC50 values were calculated for each experiment separately using the Prolab-3 system based on Cheburator 0.4 software [36] and mean values (±SD) are presented. Each compound in each concentration was tested in triplicate in a single experiment, which was repeated 3–5 times.

| Compound | IC50 [µM] |
| --- | --- |
| C#CC1(NC(=O)CCCC(=O)OC[C@]23CC[C@@H](C(=C)C)C2C2CCC4[C@@]5(C)CC[C@H](O)C(C)(C)C5CC[C@@]4(C)[C@]2(C)CC3)CCCCC1 (stereo partly shown) [4e] | 22 |
| C#CCNC(=O)CCCCCCCCCC(=O)OC[C@]12CC[C@@H](C(=C)C)C1C1CCC3[C@@]4(C)CC[C@H](O)C(C)(C)C4CC[C@@]3(C)[C@]1(C)CC2 (stereo partly shown) [5a] | 21 |
| C=C(C)[C@@H]1CC[C@]2(COC(=O)CCCCCCCCCC(=O)N3CCSCC3)CC[C@]3(C)C(CCC4[C@@]5(C)CC[C@H](O)C(C)(C)C5CC[C@]43C)C12 (stereo partly shown) [5d] | 43.6 |
| C#CC1(NC(=O)CCCCCCCCCC(=O)OC[C@]23CC[C@@H](C(=C)C)C2C2CCC4[C@@]5(C)CC[C@H](O)C(C)(C)C5CC[C@@]4(C)[C@]2(C)CC3)CCCCC1 (stereo partly shown) [5e] | > 100 |
| C#CCNC(=O)c1ccccc1C(=O)OC[C@]12CC[C@@H](C(=C)C)C1C1CCC3[C@@]4(C)CC[C@H](O)C(C)(C)C4CC[C@@]3(C)[C@]1(C)CC2 (stereo partly shown) [6a] | 24 |
| C=C(C)[C@@H]1CC[C@]2(COC(=O)c3ccccc3C(=O)N3CCOCC3)CC[C@]3(C)C(CCC4[C@@]5(C)CC[C@H](O)C(C)(C)C5CC[C@]43C)C12 (stereo partly shown) [6b] | 15 |
| C=C(C)[C@@H]1CC[C@]2(COC(=O)c3ccccc3C(=O)N3CCCCC3)CC[C@]3(C)C(CCC4[C@@]5(C)CC[C@H](O)C(C)(C)C5CC[C@]43C)C12 (stereo partly shown) [6c] | 100 |
| C=C(C)[C@@H]1CC[C@]2(COC(=O)c3ccccc3C(=O)N3CCSCC3)CC[C@]3(C)C(CCC4[C@@]5(C)CC[C@H](O)C(C)(C)C5CC[C@]43C)C12 (stereo partly shown) [6d] | 14.3 |
| C#CC1(NC(=O)c2ccccc2C(=O)OC[C@]23CC[C@@H](C(=C)C)C2C2CCC4[C@@]5(C)CC[C@H](O)C(C)(C)C5CC[C@@]4(C)[C@]2(C)CC3)CCCCC1 (stereo partly shown) [6e] | 54.6 |

Tested on: not listed separately
Assay: Experimental lipophilicity by RP-TLC
Conditions: RP-TLC, RP-18 F254S, acetone / Tris buffer pH 7.4, extrapolated to zero acetone
Protocol: The retention mechanism in the RP-TLC method is based on the partition of substances between two phases. Silica gel (RP-18 F254S plates) was used as the hydrophobic stationary phase. In contrast, the hydrophilic mobile phase was a binary mixture of acetone and an aqueous solution of TRIS buffer.
Chromatographic analysis by RP-TLC was performed an aluminum backed silica gel RP-18 F254S
phenylanthracene] and tested betulin derivatives were dissolved in chloroform to obtain a
concentration of 2 mg/mL. The prepared solutions were spotted on the plates in the amount of 2 μL.
the next step, the chromatographic chambers were saturated 30 min of the appropriate mobile phases
consisting of a mixture of acetone (Merck, Darmstadt, Germany) and aqueous solution of buffer Tris
[(tris-hydroxymethyl)aminomethane] (Fluka, Loughborough, 0.2 M, pH 7.4). The amount of acetone in
the mobile phase were in the range 60-90% in 5% increments. The chromatograms were developed for
each compound in triplicate at room temperature. The spots of betulin derivatives were visualized by
spraying the plates with the mixture of ethanol and concentrated sulfuric acid (10:1, v/v) and heating
The retardation factor (Rf) were calculated according to the equation below:
(a-the distance from the start line to the spot center, b-the distance from the start line to the mobile
The RM values were calculated by the Bate-Smith and Westall equation:
The RM0 parameters were obtained by extrapolating on the acetone content to zero, according to the
Soczewiński-Wachtmeister equation:
(C-the percentage concentration of acetone in the mobile phase, b-the slope of the regression plot).
The calibration curve was determined using eight reference compounds.
compounds were determined under the same conditions as for betulin derivatives (Table S1).

| Compound | RM0 |
| --- | --- |
| C#CC1(NC(=O)CCCC(=O)OC[C@]23CC[C@@H](C(=C)C)C2C2CCC4[C@@]5(C)CC[C@H](O)C(C)(C)C5CC[C@@]4(C)[C@]2(C)CC3)CCCCC1 (stereo partly shown) [4e] | 5.920 |
| C#CCNC(=O)CCCCCCCCCC(=O)OC[C@]12CC[C@@H](C(=C)C)C1C1CCC3[C@@]4(C)CC[C@H](O)C(C)(C)C4CC[C@@]3(C)[C@]1(C)CC2 (stereo partly shown) [5a] | 5.998 |
| C=C(C)[C@@H]1CC[C@]2(COC(=O)CCCCCCCCCC(=O)N3CCSCC3)CC[C@]3(C)C(CCC4[C@@]5(C)CC[C@H](O)C(C)(C)C5CC[C@]43C)C12 (stereo partly shown) [5d] | 5.044 |
| C#CC1(NC(=O)CCCCCCCCCC(=O)OC[C@]23CC[C@@H](C(=C)C)C2C2CCC4[C@@]5(C)CC[C@H](O)C(C)(C)C5CC[C@@]4(C)[C@]2(C)CC3)CCCCC1 (stereo partly shown) [5e] | 6.093 |
| C#CCNC(=O)c1ccccc1C(=O)OC[C@]12CC[C@@H](C(=C)C)C1C1CCC3[C@@]4(C)CC[C@H](O)C(C)(C)C4CC[C@@]3(C)[C@]1(C)CC2 (stereo partly shown) [6a] | 6.016 |
| C=C(C)[C@@H]1CC[C@]2(COC(=O)c3ccccc3C(=O)N3CCOCC3)CC[C@]3(C)C(CCC4[C@@]5(C)CC[C@H](O)C(C)(C)C5CC[C@]43C)C12 (stereo partly shown) [6b] | 5.979 |
| C=C(C)[C@@H]1CC[C@]2(COC(=O)c3ccccc3C(=O)N3CCCCC3)CC[C@]3(C)C(CCC4[C@@]5(C)CC[C@H](O)C(C)(C)C5CC[C@]43C)C12 (stereo partly shown) [6c] | 5.875 |
| C=C(C)[C@@H]1CC[C@]2(COC(=O)c3ccccc3C(=O)N3CCSCC3)CC[C@]3(C)C(CCC4[C@@]5(C)CC[C@H](O)C(C)(C)C5CC[C@]43C)C12 (stereo partly shown) [6d] | 6.255 |
| C#CC1(NC(=O)c2ccccc2C(=O)OC[C@]23CC[C@@H](C(=C)C)C2C2CCC4[C@@]5(C)CC[C@H](O)C(C)(C)C5CC[C@@]4(C)[C@]2(C)CC3)CCCCC1 (stereo partly shown) [6e] | 6.412 |

Same assay, conditions: from RM0 by calibration curve with eight reference compounds

| Compound | log PTLC |
| --- | --- |
| C#CCNC(=O)c1ccccc1C(=O)OC[C@]12CC[C@@H](C(=C)C)C1C1CCC3[C@@]4(C)CC[C@H](O)C(C)(C)C4CC[C@@]3(C)[C@]1(C)CC2 (stereo partly shown) [6a] | 8.332 |
